Reference: patent publication US12187816B2, “Macrocyclic compounds and methods of use thereof” (Genentech, Inc., priority 2020, dated 2025)
Starred links: 1 amine or outer side, 2 acyl side, 3 side chain; linkers in the order of their positions; H or OH if unused. Positions of bridges follow the written chain, without caps; N, C: chain ends. Non-standard residues stand in square brackets, D forms with d. Residues, ends and D or L forms follow the SMILES beside them. *: point of attachment. JQ1acid = Cc1sc2c(c1C)C(c1ccc(Cl)cc1)=N[C@@H](CC(=O)*)c1nnc(C)n1-2; dPhg(4-(4-Me-thiazol-5-yl)) = Cc1ncsc1-c1ccc([C@@H](N)C(=O)O)cc1; Phg(4-(4-Me-thiazol-5-yl)) = Cc1ncsc1-c1ccc([C@H](N)C(=O)O)cc1; X3 = Cc1ncsc1-c1ccc(C(N[*:1])C(=O)[*:2])cc1; dBip = N[C@H](Cc1ccc(-c2ccccc2)cc1)C(=O)O; Hyp = O=C(O)[C@@H]1C[C@@H](O)CN1; Tle = CC(C)(C)[C@H](N)C(=O)O; d(hCys) = N[C@H](CCS)C(=O)O; dDab = NCC[C@@H](N)C(=O)O; dNMeC = CN[C@H](CS)C(=O)O; dDap = NC[C@@H](N)C(=O)O; Dap = NC[C@H](N)C(=O)O; AEA = NCCOCC(=O)O; βAla = NCCC(=O)O

target: T1, BRD4 (Homo sapiens, UniProt O60885); experiment: BRD4 degradation assay in EOL1 cells (immunofluorescence imaging); type: cell-based; conditions: EoL-1 eosinophilic leukemia cells, 4 hours treatment, nuclear BRD4 immunofluorescence
T1 construct: Mean 488 intensity of BRD4 quantitated in nuclear region; endogenous in cells; host or cells: EoL-1 eosinophilic leukemia cells
Protocol: BRD4 Degradation Assay in EOL1 Cells
EoL-1 eosinophilic leukemia cells were seeded on day 1 at a density of 45,000 cells per well in Corning PureCoat Amine Microplates, (Corning #354719) in 45 μL/well of assay media (RPMI, 10% FBS, containing L-glutamine). After cells attached to cell plate, compounds were serially diluted ⅓ in dimethylsulfoxide (DMSO) to create 20-point dilutions across a 384 well v-bottom polypropylene microplate (Greiner #781091). 2 μL of each sample from the serial dilution was transferred to 98 μL of assay media as an intermediate dilution. 5 μL of each well of the intermediate dilution was added to 45 μL of cell plate. Columns 1, 2, 23 and 24 were treated with only 0.2% final concentration of DMSO for data normalization as “neutral controls”. After compound treatment, cell plates were stored in a 37° C. incubator for 4 hours. After 4 hours cells were fixed in 3.7% w/v final concentration of paraformaldehyde by addition of 15 μL of 16% w/v paraformaldehyde (Electron Microscopy Sciences #15710-S) directly to the 50 μL media and compound in the cell plate. Cell plate was incubated at RT for 20 minutes. Well contents were aspirated and washed with 100 μL/well PBS 3 times. 50 ul/well of phosphate Buffered Saline (PBS) (pH 7.5) containing 0.5% w/v bovine serum albumen, 0.5% w/v Triton X-100 (Block/Permeabilization Buffer) was added to each well. Samples were incubated for 20 minutes. Well contents were aspirated and washed 3 times with 100 μL/well of PBS. PBS was aspirated from the well and 50 μL per well of EoL-1 Block Buffer (PBS containing 10% Normal Goat Serum (AbCam #ab7481)) was added to each well. Plates were incubated at room temperature for 30 minutes. Block buffer was decanted from the wells. Immunofluorescence staining of BRD4 was carried out by diluting mAB Anti-BRD4 [EPR5150] antibody (Abcam 128874) 1:500 into Antibody Dilution Buffer (PBS, 2% Normal Goat Serum). 25 μL per well of BRD4 antibody diluted in buffer was added and incubated overnight at 4° C.
On day-2 samples were washed 3 times with 100 μL/well of PBS. 25 μL/well of secondary antibody solution (Goat Anti-Rabbit IgG, DyLight 488 Conjugated Highly Cross-adsorbed Thermo Fisher #35553) and Hoechst 33342 1 μg/ml diluted in Antibody Dilution Buffer) were dispensed into each well. Hoechst 33342 only was added to bottom 3 columns for data normalization as “inhibitor controls”. Samples were incubated for 2 hours at room temperature. Samples were washed 3 times with 100 μL PBS. Quantitative fluorescence imaging of BRD4 was carried out using an Opera Phenix High-Content Screening System. Fluorescent images of the samples were captured using 488 nm and 405 nm channels. Hoechst channel was used to identify nuclear region. Mean 488 intensity of BRD4 quantitated in nuclear region. Data analysis was carried out using Genedata Screener, with DMSO and no primary antibody control treated samples being used to define the 0% and 100% changes in BRD4. The dose-response log(inhibitor) vs. response used to define the inflexion point of curve (DC50) and the plateau of the maximal effect.
The individual topological polar surface area (TPSA) and cLogP values were calculated using Chemdraw v. 15.1 (PerkinElmer). Half life of the ternary VHL/BD1 and VHL/BD2 complexes, DC50 of BRD4 in EOL1 cells, topological polar surface area of a molecule (TPSA) and c log P (lipophilicity) for compounds described herein are provided in Table 3.

Structure (SMILES)	DC50 [µM]
Cc1ncsc1-c1ccc([C@@H]2NC(=O)[C@@H]3C[C@@H](O)CN3C(=O)[C@H](C(C)(C)C)NC(=O)CSC[C@H](C(N)=O)NC(=O)[C@@H](CNC(=O)C[C@@H]3N=C(c4ccc(Cl)cc4)c4c(sc(C)c4C)-n4c(C)nnc43)NC(=O)CNC2=O)cc1 [Compound 2] ({CH2CO}-[Tle][Hyp][Phg(4-(4-Me-thiazol-5-yl))]G[dDap](JQ1acid)[dC]-NH2; thioether N-6)	> 20
Cc1ncsc1-c1ccc([C@H]2NC(=O)[C@@H]3C[C@@H](O)CN3C(=O)[C@H](C(C)(C)C)NC(=O)CSC[C@H](C(N)=O)NC(=O)[C@@H](CCNC(=O)C[C@@H]3N=C(c4ccc(Cl)cc4)c4c(sc(C)c4C)-n4c(C)nnc43)NC(=O)CNC2=O)cc1 [Compound 9] ({CH2CO}-[Tle][Hyp][dPhg(4-(4-Me-thiazol-5-yl))]G[dDab](JQ1acid)[dC]-NH2; thioether N-6)	> 20
Cc1ncsc1-c1ccc([C@@H]2NC(=O)[C@@H]3C[C@@H](O)CN3C(=O)[C@H](C(C)(C)C)NC(=O)CSC[C@H](C(N)=O)NC(=O)[C@@H](CCNC(=O)C[C@@H]3N=C(c4ccc(Cl)cc4)c4c(sc(C)c4C)-n4c(C)nnc43)NC(=O)CNC2=O)cc1 [Compound 10] ({CH2CO}-[Tle][Hyp][Phg(4-(4-Me-thiazol-5-yl))]G[dDab](JQ1acid)[dC]-NH2; thioether N-6)	> 20
Cc1ncsc1-c1ccc([C@H]2NC(=O)[C@@H]3C[C@@H](O)CN3C(=O)[C@H](C(C)(C)C)NC(=O)CSC[C@H](C(=O)NCC(=O)NCC(=O)NCC(N)=O)NC(=O)[C@@H](CNC(=O)C[C@@H]3N=C(c4ccc(Cl)cc4)c4c(sc(C)c4C)-n4c(C)nnc43)NC(=O)CNC2=O)cc1 [Compound 11] ({CH2CO}-[Tle][Hyp][dPhg(4-(4-Me-thiazol-5-yl))]G[dDap](JQ1acid)[dC]GGG-NH2; thioether N-6)	> 20
Cc1ncsc1-c1ccc([C@H]2NC(=O)[C@@H]3C[C@@H](O)CN3C(=O)[C@H](C(C)(C)C)NC(=O)CSC[C@H](C(N)=O)NC(=O)[C@@H](CNC(=O)C[C@@H]3N=C(c4ccc(Cl)cc4)c4c(sc(C)c4C)-n4c(C)nnc43)NC(=O)[C@H](C)NC2=O)cc1 [Compound 12] ({CH2CO}-[Tle][Hyp][dPhg(4-(4-Me-thiazol-5-yl))]A[dDap](JQ1acid)[dC]-NH2; thioether N-6)	> 20
Cc1ncsc1-c1ccc([C@H]2NC(=O)[C@@H]3C[C@@H](O)CN3C(=O)[C@H](C(C)(C)C)NC(=O)CSC[C@H](C(N)=O)NC(=O)[C@H](CNC(=O)C[C@@H]3N=C(c4ccc(Cl)cc4)c4c(sc(C)c4C)-n4c(C)nnc43)NC(=O)CNC2=O)cc1 [Compound 13] ({CH2CO}-[Tle][Hyp][dPhg(4-(4-Me-thiazol-5-yl))]G[Dap](JQ1acid)[dC]-NH2; thioether N-6)	> 20
Cc1ncsc1-c1ccc([C@@H]2NC(=O)[C@@H]3C[C@@H](O)CN3C(=O)[C@H](C(C)(C)C)NC(=O)CSC[C@H](C(N)=O)NC(=O)[C@H](CNC(=O)C[C@@H]3N=C(c4ccc(Cl)cc4)c4c(sc(C)c4C)-n4c(C)nnc43)NC(=O)CNC2=O)cc1 [Compound 14] ({CH2CO}-[Tle][Hyp][Phg(4-(4-Me-thiazol-5-yl))]G[Dap](JQ1acid)[dC]-NH2; thioether N-6)	> 20
Cc1ncsc1-c1ccc([C@H]2NC(=O)[C@@H]3C[C@@H](O)CN3C(=O)[C@H](C(C)(C)C)NC(=O)CSC[C@H](C(N)=O)N(C)C(=O)[C@@H](CNC(=O)C[C@@H]3N=C(c4ccc(Cl)cc4)c4c(sc(C)c4C)-n4c(C)nnc43)NC(=O)CNC2=O)cc1 [Compound 15] ({CH2CO}-[Tle][Hyp][dPhg(4-(4-Me-thiazol-5-yl))]G[dDap](JQ1acid)[dNMeC]-NH2; thioether N-6)	< 20
Cc1ncsc1-c1ccc([C@H]2NC(=O)[C@@H]3C[C@@H](O)CN3C(=O)[C@H](C(C)(C)C)NC(=O)COCCNC(=O)[C@@H](CNC(=O)C[C@@H]3N=C(c4ccc(Cl)cc4)c4c(sc(C)c4C)-n4c(C)nnc43)NC(=O)CNC2=O)cc1 [Compound 16] (cyclo([AEA][Tle][Hyp][dPhg(4-(4-Me-thiazol-5-yl))]G[dDap](JQ1acid)))	< 1
Cc1ncsc1-c1ccc([C@@H]2NC(=O)[C@@H]3C[C@@H](O)CN3C(=O)[C@H](C(C)(C)C)NC(=O)COCCNC(=O)[C@@H](CNC(=O)C[C@@H]3N=C(c4ccc(Cl)cc4)c4c(sc(C)c4C)-n4c(C)nnc43)NC(=O)CNC2=O)cc1 [Compound 17] (cyclo([AEA][Tle][Hyp][Phg(4-(4-Me-thiazol-5-yl))]G[dDap](JQ1acid)))	< 1

Second part, the compound after the results:

DC50 [µM]	Structure (SMILES)
< 1	Cc1ncsc1-c1ccc([C@H]2NC(=O)[C@@H]3C[C@@H](O)CN3C(=O)[C@H](C(C)(C)C)NC(=O)CSC[C@H](C(N)=O)NC(=O)[C@@H](CNC(=O)C[C@@H]3N=C(c4ccc(Cl)cc4)c4c(sc(C)c4C)-n4c(C)nnc43)NC(=O)CNC2=O)cc1 [Compound 1] ({CH2CO}-[Tle][Hyp][dPhg(4-(4-Me-thiazol-5-yl))]G[dDap](JQ1acid)[dC]-NH2; thioether N-6)
< 1	Cc1ncsc1-c1ccc(C2NC(=O)[C@@H]3C[C@@H](O)CN3C(=O)[C@H](C(C)(C)C)NC(=O)CSCC[C@H](C(N)=O)NC(=O)[C@@H](CNC(=O)C[C@@H]3N=C(c4ccc(Cl)cc4)c4c(sc(C)c4C)-n4c(C)nnc43)NC(=O)CNC2=O)cc1 (stereo partly drawn) [Compound 3] ({CH2CO}-[Tle][Hyp][X3]G[dDap](JQ1acid)[d(hCys)]-NH2; thioether N-6)
< 20	Cc1ncsc1-c1ccc(C2NC(=O)[C@@H]3C[C@@H](O)CN3C(=O)[C@H](C(C)(C)C)NC(=O)CSC[C@H](C(N)=O)NC(=O)[C@@H](CNC(=O)C[C@@H]3N=C(c4ccc(Cl)cc4)c4c(sc(C)c4C)-n4c(C)nnc43)NC(=O)CCNC2=O)cc1 (stereo partly drawn) [Compound 4] ({CH2CO}-[Tle][Hyp][X3][βAla][dDap](JQ1acid)[dC]-NH2; thioether N-6)
< 20	Cc1ncsc1-c1ccc([C@H]2NC(=O)[C@@H]3C[C@@H](O)CN3C(=O)[C@H](C(C)(C)C)NC(=O)CSCC[C@H](C(N)=O)NC(=O)[C@@H](CNC(=O)C[C@@H]3N=C(c4ccc(Cl)cc4)c4c(sc(C)c4C)-n4c(C)nnc43)NC(=O)CCNC2=O)cc1 [Compound 5] ({CH2CO}-[Tle][Hyp][dPhg(4-(4-Me-thiazol-5-yl))][βAla][dDap](JQ1acid)[d(hCys)]-NH2; thioether N-6)
< 20	Cc1ncsc1-c1ccc([C@H]2NC(=O)[C@@H]3C[C@@H](O)CN3C(=O)[C@H](C(C)(C)C)NC(=O)CNC(=O)[C@H](CCC(N)=O)NC(=O)[C@@H](CNC(=O)C[C@@H]3N=C(c4ccc(Cl)cc4)c4c(sc(C)c4C)-n4c(C)nnc43)NC(=O)CNC2=O)cc1 [Compound 6] (cyclo(G[Tle][Hyp][dPhg(4-(4-Me-thiazol-5-yl))]G[dDap](JQ1acid)Q))
< 20	Cc1ncsc1-c1ccc([C@@H]2NC(=O)[C@@H]3C[C@@H](O)CN3C(=O)[C@H](C(C)(C)C)NC(=O)CNC(=O)[C@H](CCC(N)=O)NC(=O)[C@@H](CNC(=O)C[C@@H]3N=C(c4ccc(Cl)cc4)c4c(sc(C)c4C)-n4c(C)nnc43)NC(=O)CNC2=O)cc1 [Compound 7] (cyclo(G[Tle][Hyp][Phg(4-(4-Me-thiazol-5-yl))]G[dDap](JQ1acid)Q))
< 20	Cc1sc2c(c1C)C(c1ccc(Cl)cc1)=N[C@@H](CC(=O)NC[C@H]1NC(=O)CNC(=O)[C@@H](C)NC(=O)[C@@H]3C[C@@H](O)CN3C(=O)[C@H](C(C)(C)C)NC(=O)CSC[C@H](C(N)=O)NC1=O)c1nnc(C)n1-2 [Compound 8] ({CH2CO}-[Tle][Hyp][dA]G[dDap](JQ1acid)[dC]-NH2; thioether N-6)
< 1	Cc1sc2c(c1C)C(c1ccc(Cl)cc1)=N[C@@H](CC(=O)NC[C@H]1NC(=O)CNC(=O)[C@@H](Cc3ccc(-c4ccccc4)cc3)NC(=O)[C@@H]3C[C@@H](O)CN3C(=O)[C@H](C(C)(C)C)NC(=O)CSC[C@H](C(N)=O)NC1=O)c1nnc(C)n1-2 [Compound 18] ({CH2CO}-[Tle][Hyp][dBip]G[dDap](JQ1acid)[dC]-NH2; thioether N-6)
